From patent US20130266557A1, “METHODS FOR TREATMENT OF A SARCOMA USING AN EPIMETABOLIC SHIFTER (COENZYME Q10)” (priority 2009, published 2013)

Legend:
NCIES0808 cells [1] = experiment: Western blot analysis; format: cell-based, human
Protocol: Cells were grown and treated with CoQ10 at 50 uM and 100 uM, along with the proper controls. The total cell lysates (as prepared above) were processed and evaluated by Western blot analysis. Proteins from each treatment group were resolved on SDS-PAGE and transferred onto PVDF membranes. They were then hybridized with antibodies.
Either 5 or 10 μg of protein was assayed per sample by immunoblotting. Proteins were separated on 10-20% Tris-HCl gels or 4-12% Bis-Tris gels, transferred via electrophoresis to PVDF membranes and blocked using a 5% GE/Amersham ECF blocker and TBST solution prior to incubation with primary antibodies. The primary antibodies were incubated overnight at 4 degrees C. in a 5% BSA and TBST solution. Secondary antibodies were incubated for one hour at room temperature. All antibodies were purchased from commercial vendors. Antibodies were used at the manufacturers' recommended dilution, with the control βActin at a dilution of 1:5000. Blots were developed using GE/Amersham ECF reagent, and results were quantified using the Fuji FL-5100 laser scanner and Bio-Rad Quantity One densitometry analysis software. All blots were also probed for and normalized to their respective βActin expression.
NCIES0808 cells treated for 24 hours with 50 or 100 μM Q10 were subjected to Western blot analysis and were analyzed to identify protein-level changes relative to the control media samples.
Protein obtained from the treated cells was evaluated by Western blot analysis against an antibody for Angiotensin-converting enzyme (ACE) (FIG. 4A), an antibody for Caspase 3 (FIG. 4B), an antibody for GARS (FIG. 4C), an antibody for Matrix Metalloproteinase 6 (MMP-6) (FIG. 4D) and a series of antibodies for Neurolysin (NLN) (FIGS. 4E-F).

[2] = cited from earlier work
NCI-ES-0808 cells = experiment: Cell morphology by microscopy; format: cell-based, human
Protocol: NCIES0808 cells were plated in T25 flasks at a density of 2×10^6 cells per flask in media or media containing 50 uM/100 uM Q10. All treatment groups were run in triplicate. Cells were harvested at 0, 3, 6, 24 or 48 hours. Pictures were taken to examine cell morphology before harvesting. To harvest cells, media was removed but saved to be able to collect floating apoptotic cells. Cells were trypsinized with 1 ml of trypsin-EDTA and the enzyme action was stopped by addition of 4 ml complete media. Trypsinized cells were added to the appropriate tube containing the media with dead cells. Cells were centrifuged at 1200 rpm for 5 minutes and media was aspirated leaving behind the cell pellet for RNA extraction. […] RNA samples were eluted from spin columns in water; absorbance was measured at 260 nm, 230 nm and 280 nm. The purity of RNA was evaluated by the 260/230 and 280/230 ratios. The concentration of RNA in all of the samples was calculated from absorbance values at […]. […] The ct values from each of the samples were normalized to three housekeeping genes and fold regulation of Q10 treated groups was compared to time matched controls from cells grown in regular media was calculated.
The morphology of NCI-ES-0808 cells was monitored following treatment with CoQ10. […]

NCIES0808 cells [3] = experiment: Real-time PCR, Human Diabetes Arrays; format: cell-based
Protocol: (§1) NCIES0808 cells were plated in T25 flasks at a density of 2×10^6 cells per flask in media or media containing 50 uM/100 uM Q10. All treatment groups were run in triplicate. Cells were harvested at 0, 3, 6, 24 or 48 hours. Pictures were taken to examine cell morphology before harvesting. To harvest cells, media was removed but saved to be able to collect floating apoptotic cells. Cells were trypsinized with 1 ml of trypsin-EDTA and the enzyme action was stopped by addition of 4 ml complete media. Trypsinized cells were added to the appropriate tube containing the media with dead cells. Cells were centrifuged at 1200 rpm for 5 minutes and media was aspirated leaving behind the cell pellet for RNA extraction. RNA isolation from cell pellets was carried out with the RNeasy kit (Qiagen, Valencia Calif.) according to the manufacturer's instructions. RNA samples were eluted from spin columns in water; absorbance was measured at 260 nm, 230 nm and 280 nm. The purity of RNA was evaluated by the 260/230 and 280/230 ratios. The concentration of RNA in all of the samples was calculated from absorbance values at […]. First strand cDNA was synthesized from 0.5 ug of all RNA samples using instructions provided with the First strand kit (SABiosciences, Frederick, Md.). The synthesized first strand from a sample was dispensed equally in a PCR array plate containing primers within a pathway (Angiogenesis, Diabetes and Mitochondria) (SABiosciences Corporation, Frederick, Md.). The arrays were amplified with real time PCR using the SYBR green detection methods using manufacturer approved protocols. The ct values from each of the samples were normalized to three housekeeping genes and fold regulation of Q10 treated groups was compared to time matched controls from cells grown in regular media was calculated.
(§2) The experiments described in this example were performed to test the overall hypothesis that Q10 would have an impact on expression of multiple genes in Ewing's sarcoma cells. The mRNA from NCIES0808 cells treated with 50 μM or 100 μM Q10 for various times was evaluated by RT-PCR against a panel of target proteins involved in human diabetes, human angiogenesis or human mitochondrial pathways.
(§3) Ct values obtained from a real time thermocycler were loaded onto the analysis tool on the SABiosciences website for calculation of fold regulation compared to cells with media. The genes that are included in the tables below are those that show a p value of close to 0.05.

[4] = test system: keratinocytes and dermal fibroblasts; experiment: Proliferation and migration of normal cells; format: cell-based; conditions: including keratinocytes and dermal fibroblasts
From the text: Moreover, a surprising divergent effect was observed on normal cells as compared to oncogenic cells.

cancer = conditions: Mazzio 2006; cited from earlier work
[5] = test system: cancer cell lines (SK-MEL-28, SK-MEL-2, SCC, PaCa2, HEP-G2) and control keratinocytes and melanocytes; experiment: Sensitivity and apoptotic response of a cell line panel (Example 1); format: cell-based; conditions: various levels of Coenzyme Q10
Protocol: In a first set of experiments, changes to cell morphology/physiology were evaluated by examining the sensitivity and apoptotic response of cells to CoQ10. A panel of skin cell lines including a control cell lines (primary culture of keratinocytes and melanocytes) and several skin cancers cell lines (SK-MEL-28, a non-metastatic skin melanoma; SK-MEL-2, a metastatic skin melanoma; or SCC, a squamous cell carcinoma; PaCa2, a pancreatic cancer cell line; or HEP-G2, a liver cancer cell line) were treated with various levels of Coenzyme Q10.

[6] = human plasma; cited from earlier work
NCIES0808 cells [7] = experiment: Real-time PCR, Human Angiogenesis Arrays; format: cell-based; conditions: 100 uM Q10
Protocol: as §1, §2, §3

[8] = 24 hours with 50 or 100 μM Q10, relative to control media

## Coenzyme Q10 [CoQ10]
NCIES0808 cells [1]; 24 hours of treatment with 100 μM Q10
  Caspase 3 protein level by Western blot: marked downregulation
NCIES0808 cells [1]; [8]
  Angiotensin-converting enzyme (ACE) protein level by Western analysis: downregulated
  Caspase 3 protein level by Western analysis: downregulated
  GARS protein level by Western analysis: downregulated
  Matrix Metalloproteinase 6 protein level by Western analysis: downregulated
  Neurolysin protein level by Western analysis: downregulated
[2]
  Solubility in water: insoluble in water
NCI-ES-0808 cells; 3, 6, 24, 48 hours, 50 uM and 100 uM Q10
  Differences in cell number or morphology (FIG. 1 legend): no distinct differences in either cell number or morphology
NCI-ES-0808 cells; among treatment groups, 3 hrs and 6 hrs post treatment (FIG. 1)
  Differences in morphology, apoptotic cells or cell number by microscopy: No differences in morphology, number of visually ascertainable apoptotic cells or cell number
NCIES0808 cells [3]; 6 hours, 50 uM Q10
  Pattern of regulation, FOXP3 mRNA: Upregulation at 6 hours with 50 uM and 100 uM Q10.
NCIES0808 cells [3]; 6 hours, 100 uM Q10
  Pattern of regulation, FOXP3 mRNA: Upregulation at 6 hours with 50 uM and 100 uM Q10.
  Pattern of regulation, GCGR mRNA: Upregulation at 6 hours with 100 uM Q10.
  Pattern of regulation, GPD1 mRNA: Upregulation at 6 hours with 100 uM Q10.
  Pattern of regulation, INPPL1 mRNA: Upregulation at 6 hours with 100 uM Q10.
  Pattern of regulation, IRS2 mRNA: Upregulation at 6 hours with 100 uM Q10.
NCIES0808 cells [3]; 24 hours, 100 uM Q10
  Pattern of regulation, ADRB mRNA: Upregulation at 24 hours with 100 uM Q10.
  Pattern of regulation, DUSP4 mRNA: Upregulation at 24 hours with 100 uM Q10.
  Pattern of regulation, FOX C2 mRNA: Upregulation at 24 hours with 100 uM Q10
  Pattern of regulation, HMOX1 mRNA: Upregulation at 24 and 48 hours with 100 uM Q10.
  Pattern of regulation, VEGFA mRNA: Upregulation at 24 hours with 100 uM Q10 and 48 hours
NCIES0808 cells [3]; 48 hours, 50 uM Q10
  Pattern of regulation, VEGFA mRNA: Upregulation at 24 hours with 100 uM Q10 and 48 hours
NCIES0808 cells [3]; 48 hours, 100 uM Q10
  Pattern of regulation, CEACAM1 mRNA: Upregulation at 48 hours with 100 uM Q10.
  Pattern of regulation, HMOX1 mRNA: Upregulation at 24 and 48 hours with 100 uM Q10.
  Pattern of regulation, IL4R mRNA: Upregulation at 48 hours with 100 uM Q10.
[4]
  Effect on normal cells: increased proliferation and migration
cancer
  Lethality against cancer: did not find CoQ10 to be as lethal as expected
[5]
  Apoptotic response of cancer vs control cell lines: induction of apoptosis and cell death in the cancer cells only
[6]
  Share of the molecule found in the reduced form (Q10H2): 90%
NCIES0808 cells [7]; 3 hours
  Pattern of regulation, ANGPTL3 mRNA: Down regulation at 3 hours with 100 uM Q10.
  Pattern of regulation, CCL2 mRNA: Down regulation at 3 hours with 100 uM Q10.
  Pattern of regulation, CDH5 mRNA: Down regulation at 3 and 24 hours with 100 uM Q10.
  Pattern of regulation, CXCL1 mRNA: Down regulation at 3 hours with 100 uM Q10
  Pattern of regulation, CXCL3 mRNA: Down regulation at 3 hours with 100 uM Q10.
NCIES0808 cells [7]; 6 hours
  Pattern of regulation, LAMA5 mRNA: Up regulation at 6 hours with 100 uM Q10.
NCIES0808 cells [7]; 24 hours
  Pattern of regulation, CDH5 mRNA: Down regulation at 3 and 24 hours with 100 uM Q10.
NCIES0808 cells [7]; 48 hours
  Pattern of regulation, PXLDC1 mRNA: Up regulation at 48 hours with 100 uM Q10.
